Converted amounts (≈) assume the structure as drawn.
Tests used:
MDCK = assay: Inhibitory concentration against Influenza A virus (A/Yamagata/32/89) MDCK cells determined by plaque reduction assay; format: functional, cell-based; conditions: Canis lupus familiaris
[1] = target: Neuraminidase (Influenza A virus (A/Puerto Rico/8/1934(H1N1)), UniProt P03468); assay: Inhibitory concentration against influenza A virus sialidase A/PR/8/34
Mus musculus = assay: Median survival time was determined after oral administration (10 umol/kg) once daily for 5 days in mouse infected with influenza virus; format: functional

Neuraminidase (Influenza A virus (A/Puerto Rico/8/1934(H1N1)), UniProt P03468), sequence (P03468 whole entry): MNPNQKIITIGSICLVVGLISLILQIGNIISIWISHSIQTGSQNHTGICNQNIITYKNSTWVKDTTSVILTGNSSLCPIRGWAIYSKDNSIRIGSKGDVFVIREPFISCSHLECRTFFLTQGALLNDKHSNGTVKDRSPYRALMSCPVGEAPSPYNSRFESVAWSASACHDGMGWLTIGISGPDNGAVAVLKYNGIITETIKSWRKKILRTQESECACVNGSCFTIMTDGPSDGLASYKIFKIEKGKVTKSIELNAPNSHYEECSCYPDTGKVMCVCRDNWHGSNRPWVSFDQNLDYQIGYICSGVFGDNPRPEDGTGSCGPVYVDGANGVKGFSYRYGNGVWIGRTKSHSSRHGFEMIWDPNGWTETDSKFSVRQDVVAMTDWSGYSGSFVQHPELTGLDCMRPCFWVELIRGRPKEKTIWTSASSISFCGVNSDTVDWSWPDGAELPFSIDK

| Structure (SMILES) | IC50 (MDCK) [ng/mL] | IC50 [1] [nM] | Survival time (Mus musculus) [days] |
| --- | --- | --- | --- |
| CC(=O)N[C@H]1[C@H]([C@H]2CCCCO2)OC(C(=O)O)=C[C@@H]1NC(=N)N | > 100 | 735 |  |
| CC(=O)N[C@H]1[C@H]([C@@H]2OCC(F)(F)[C@@H](O)[C@H]2O)OC(C(=O)O)=C[C@@H]1NC(=N)N | 1.4 (≈ 3.55 nM) | 27.1 |  |
| CC(=O)N[C@H]1[C@H]([C@@H]2OCC[C@@H](O)[C@H]2O)OC(C(=O)O)=C[C@@H]1NC(=N)N | 0.6 (≈ 1.67 nM) | 28.7 | 10 |
| CC(=O)N[C@H]1[C@H]([C@@H]2OCCC[C@@H](O)[C@H]2O)OC(C(=O)O)=C[C@@H]1NC(=N)N | 2.2 (≈ 5.91 nM) | 33.3 |  |
| CC(=O)N[C@H]1[C@H]([C@H]2C[C@H](O)[C@H](O)CO2)OC(C(=O)O)=C[C@@H]1NC(=N)N | > 100 | 6.84 |  |
| CC(=O)N[C@H]1[C@H]([C@H](O)[C@H](O)CO)OC(C(=O)O)=C[C@@H]1NC(=N)N [ZANAMIVIR] | 6.6 (≈ 19.9 nM) |  |  |
| CC(=O)N[C@H]1[C@H]([C@@H]2OC[C@@H](O)[C@H]2O)OC(C(=O)O)=C[C@@H]1NC(=N)N | 1.4 (≈ 4.07 nM) | 17.7 |  |
| CC(=O)N[C@H]1[C@H]([C@@H]2C[C@@H](O)[C@@H](O)CO2)OC(C(=O)O)=C[C@@H]1NC(=N)N | > 100 | 10000 |  |
| CC(=O)N[C@H]1[C@H]([C@@H]2C[C@H](O)[C@H](O)CO2)OC(C(=O)O)=C[C@@H]1NC(=N)N | > 100 | 1030 |  |
| CC(=O)N[C@H]1[C@H]([C@H]2C[C@@H](O)[C@@H](O)CO2)OC(C(=O)O)=C[C@@H]1NC(=N)N | > 100 | 2780 |  |
